# Tested on: P12-Ichikawa
# Experiment: cell viability relative to DMSO control; higher = less cytotoxic
# Conditions: 48 h
# Outline: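 In 1536-well plates, 5 μl of leukemia cells were seeded per well: 500 cells/well for NOMO1 or SEM and 1000 cells/well for P12-Ichikawa. Each line had first been adapted for at least four passages in each medium. Library compounds in DMSO were pin-dosed at 11 threefold concentrations between 47 μM and 0.79 nM, and CellTiter-Glo One luminescence was read after 48 h at 37°C. Viability is a per-plate percentage relative to DMSO wells, with cell-free wells as background.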
# [1] = HPLM + 10% dialyzed FBS, 0.000781 µM
# [2] = HPLM + 10% dialyzed FBS, 0.00234 µM
# [3] = HPLM + 10% dialyzed FBS, 0.00702 µM
# [4] = HPLM + 10% dialyzed FBS, 0.0211 µM
# [5] = HPLM + 10% dialyzed FBS, 0.0632 µM
# [6] = HPLM + 10% dialyzed FBS, 0.19 µM
# [7] = HPLM + 10% dialyzed FBS, 0.569 µM
# [8] = HPLM + 10% dialyzed FBS, 1.71 µM
# [9] = HPLM + 10% dialyzed FBS, 5.12 µM
# [10] = HPLM + 10% dialyzed FBS, 15.4 µM
# [11] = HPLM + 10% dialyzed FBS, 46.1 µM
# [12] = RPMI 5 mM glucose + 10% FBS, 0.000781 µM
# [13] = RPMI 5 mM glucose + 10% FBS, 0.00234 µM
# [14] = RPMI 5 mM glucose + 10% FBS, 0.00702 µM
# [15] = RPMI 5 mM glucose + 10% FBS, 0.0211 µM
# [16] = RPMI 5 mM glucose + 10% FBS, 0.0632 µM
# [17] = RPMI 5 mM glucose + 10% FBS, 0.19 µM
# [18] = RPMI 5 mM glucose + 10% FBS, 0.569 µM
# [19] = RPMI 5 mM glucose + 10% FBS, 1.71 µM
# [20] = RPMI 5 mM glucose + 10% FBS, 5.12 µM
# [21] = RPMI 5 mM glucose + 10% FBS, 15.4 µM
# [22] = RPMI 5 mM glucose + 10% FBS, 46.1 µM
# [23] = RPMI 5 mM glucose + 10% dialyzed FBS, 0.000781 µM
# [24] = RPMI 5 mM glucose + 10% dialyzed FBS, 0.00234 µM
# [25] = RPMI 5 mM glucose + 10% dialyzed FBS, 0.00702 µM
# [26] = RPMI 5 mM glucose + 10% dialyzed FBS, 0.0211 µM
# [27] = RPMI 5 mM glucose + 10% dialyzed FBS, 0.0632 µM
# [28] = RPMI 5 mM glucose + 10% dialyzed FBS, 0.19 µM
# [29] = RPMI 5 mM glucose + 10% dialyzed FBS, 0.569 µM
# [30] = RPMI 5 mM glucose + 10% dialyzed FBS, 1.71 µM
# [31] = RPMI 5 mM glucose + 10% dialyzed FBS, 5.12 µM
# [32] = RPMI 5 mM glucose + 10% dialyzed FBS, 15.4 µM
# [33] = RPMI 5 mM glucose + 10% dialyzed FBS, 46.1 µM
SMILES,cell viability [1],cell viability [2],cell viability [3],cell viability [4],cell viability [5],cell viability [6],cell viability [7],cell viability [8],cell viability [9],cell viability [10],cell viability [11],cell viability [12],cell viability [13],cell viability [14],cell viability [15],cell viability [16],cell viability [17],cell viability [18],cell viability [19],cell viability [20],cell viability [21],cell viability [22],cell viability [23],cell viability [24],cell viability [25],cell viability [26],cell viability [27],cell viability [28],cell viability [29],cell viability [30],cell viability [31],cell viability [32],cell viability [33]
O=C(NOCC1CC1)c1ccc(F)c(F)c1Nc1ccc(I)cc1Cl,92.8%,98%,104%,110%,114%,106%,101%,94.8%,84.3%,82.2%,79.3%,96.6%,102%,105%,103%,110%,98%,97.1%,88.7%,74%,60.9%,70%,92.9%,106%,98%,112%,109%,114%,110%,112%,91.8%,71%,82.6%
CC(C)C[C@H](CC(=O)O)C(=O)N[C@@H](Cc1c[nH]c2ccccc12)C(=O)N[C@@H](C)c1ccccc1,95.1%,102%,108%,108%,112%,111%,83.6%,107%,73.4%,42.1%,22.4%,89%,96%,111%,101%,94.2%,106%,83.7%,106%,72.6%,53.4%,32.9%,103%,111%,101%,119%,107%,108%,103%,107%,74.8%,67.8%,28.2%
c1cc2c(cc1[C@H]1OC[C@H]3[C@@H]1CO[C@@H]3c1ccc3c(c1)OCO3)OCO2,122%,120%,118%,124%,122%,129%,133%,122%,119%,128%,122%,–,–,–,–,–,–,–,–,–,–,–,–,–,–,–,–,–,–,–,–,–,–
OC(=O)CNC(=O)\C1=C(/O)C2=CC=CC=C2N(CC3=CC=CC=C3)C1=O,97.6%,113%,102%,104%,104%,100%,105%,101%,101%,103%,39.4%,98.7%,108%,113%,114%,108%,101%,102%,107%,93%,97.2%,92.8%,90.4%,97.9%,104%,95.1%,93.1%,94.4%,94%,93.1%,95.8%,94.5%,5.26%
CC(C)(C)NCC(O)c1ccc(O)c(CO)c1 (stereo unspecified),117%,115%,114%,105%,119%,121%,110%,97.8%,90.5%,86.5%,80%,101%,116%,121%,114%,111%,113%,103%,103%,84.4%,71.4%,68.3%,94.9%,108%,109%,106%,105%,109%,102%,110%,80.8%,73.3%,68.4%
Cc1ccc(C(=O)Nc2ccc([S+](=O)([O-])O)c3cc([S+](=O)([O-])O)cc([S+](=O)([O-])O)c23)cc1NC(=O)c1cccc(NC(=O)Nc2cccc(C(=O)Nc3cc(C(=O)Nc4ccc([S+](=O)([O-])O)c5cc([S+](=O)([O-])O)cc([S+](=O)([O-])O)c45)ccc3C)c2)c1,97.5%,104%,92.8%,95.4%,96.4%,87.2%,77.3%,81.5%,57.1%,55.2%,47%,97.3%,89.2%,99.6%,102%,88.6%,82.2%,92.4%,81.1%,60.5%,53.4%,44.3%,99.1%,94.9%,93.5%,94%,89.3%,88.8%,80%,75.9%,56.4%,54%,42.9%
Nc1ncnc2nc(-c3ccc(N4CCOCC4)nc3)cc(-c3cccc(Br)c3)c12,116%,128%,117%,122%,117%,117%,115%,119%,111%,108%,113%,–,–,–,–,–,–,–,–,–,–,–,114%,121%,112%,121%,118%,121%,129%,115%,115%,108%,112%
CCOC(=O)c1c(CSc2ccccc2)n(C)c2cc(Br)c(O)c(CN(C)C)c12,121%,119%,128%,126%,123%,127%,118%,115%,124%,115%,109%,118%,127%,122%,126%,128%,123%,125%,112%,112%,113%,73.5%,121%,119%,125%,129%,123%,118%,127%,118%,124%,113%,76.3%

# — the supplement of paper PMC11451515
